Experimental data reported in US12564191B2, “Pesticidal compounds” (priority 2020, dated 2026).

What was measured:
Format in all cases: in vivo
[1] = test system: Yellow fever mosquito (Aedes aegypti); experiment: whole plant or invertebrate; conditions: 48 h, freshly hatched larvae in tap water, assessed after 2 days, read-out: larval mortality in comparison with untreated controls
Protocol: B.6. Yellow Fever Mosquito (Aedes aegypti)
For evaluating control of yellow fever mosquito (Aedes aegypti) the test unit consisted of 96-well-microtiter plates containing 200 μl of tap water per well and 5-15 freshly hatched A. aegypti larvae. The active compounds were formulated using a solution containing 75% (v/v) water and 25% (v/v) DMSO. Different concentrations of formulated compounds or mixtures were sprayed onto the insect diet at 2.5 μl, using a custom built micro atomizer, at two replications.
After application, microtiter plates were incubated at 28+1° C., 80+5% RH for 2 days. Larval mortality was then visually assessed.

[2] = test system: Tobacco budworm (Heliothis virescens); experiment: Tobacco budworm (Heliothis virescens) microtiter diet test, egg and larval mortality; conditions: 120 h, sprayed onto insect diet, assessed after 5 days, read-out: egg and larval mortality in comparison with untreated controls
Protocol: B.5. Tobacco Budworm (Heliothis virescens)
For evaluating control of tobacco budworm (Heliothis virescens) the test unit consisted of 96-well-microtiter plates containing an insect diet and 15-25 H. virescens eggs.
The compounds were formulated using a solution containing 75% v/v water and 25% v/v DMSO. Different concentrations of formulated compounds were sprayed onto the insect diet at 10 μl, using a custom built micro atomizer, at two replications.
After application, microtiter plates were incubated at about 28±1° C. and about 80±5% relative humidity for 5 days. Egg and larval mortality was then visually assessed.

[3] = test system: Orchid thrips (Dichromothrips corbetti); experiment: Orchid thrips (Dichromothrips corbetti) floral-immersion test; conditions: adult thrips, 72 hours after treatment, read-out: mortality in comparison with untreated controls
Protocol: B.7. Orchid Thrips (Dichromothrips corbetti)
Dichromothrips corbetti adults used for bioassay were obtained from a colony maintained continuously under laboratory conditions. For testing purposes, the test compound is diluted in a 1:1 mixture of acetone:water (vol:vol), plus Kinetic® HV at a rate of 0.01% v/v.
Thrips potency of each compound was evaluated by using a floral-immersion technique. All petals of individual, intact orchid flowers were dipped into treatment solution and allowed to dry in Petri dishes. Treated petals were placed into individual re-sealable plastic along with about 20 adult thrips. All test arenas were held under continuous light and a temperature of about 28° C. for duration of the assay. After 3 days, the numbers of live thrips were counted on each petal. The percent mortality was recorded 72 hours after treatment.

[4] = test system: Southern Armyworm (Spodoptera eridania), 2nd Instar Larvae; experiment: Southern armyworm 2nd instar larvae on sprayed lima bean plants; conditions: 96 h, 4 days after treatment, read-out: mortality in comparison with untreated controls
Protocol: B.4. Southern Armyworm (Spodoptera eridania), 2nd Instar Larvae
(§1) The active compounds were formulated in cyclohexanone as a 10,000 ppm solution supplied in tubes. The tubes were inserted into an automated electrostatic sprayer equipped with an atomizing nozzle and they served as stock solutions for which lower dilutions were made in 50% acetone:50% water (v/v). A nonionic surfactant (Kinetic®) was included in the solution at a volume of 0.01% (v/v).
Lima bean plants (variety Sieva) were grown 2 plants to a pot and selected for treatment at the 1st true leaf stage. Test solutions were sprayed onto the foliage by an automated electrostatic plant sprayer equipped with an atomizing spray nozzle. The plants were dried in the sprayer fume hood and then removed from the sprayer. Each pot was placed into perforated plastic bags with a zip closure. About 10 to 11 armyworm larvae were placed into the bag and the bags zipped closed. Test plants were maintained in a growth room at about 25° C. and about 20-40% relative humidity for 4 days, avoiding direct exposure to fluorescent light (24 hour photoperiod) to prevent trapping of heat inside the bags. Mortality and reduced feeding were assessed 4 days after treatment, compared to untreated control plants.

[5] = test system: Western flower thrips (Frankliniella occidentalis); experiment: Western flower thrips (Frankliniella occidentalis) cotton leaf disc test; conditions: foliar, 48 h, treated cotton leaf discs, 2 DAT, read-out: mortality in comparison with untreated controls
Protocol: B.9. Western Flower Thrips (Frankliniella occidentalis)
The active compounds were formulated by a Tecan liquid handler in 100% cyclohexanone as a 10,000 ppm solution supplied in tubes. The 10,000 ppm solution was serially diluted in 100% cyclohexanone to make interim solutions. These served as stock solutions for which final dilutions were made by the Tecan in 50% acetone:50% water (v/v) into 10 or 20 ml glass vials. A nonionic surfactant (Kinetic®) was included in the solution at a volume of 0.01% (v/v). The vials were then inserted into an automated electrostatic sprayer equipped with an atomizing nozzle for application to plants/insects.
Small (˜2″ in height) cotton plants are sprayed with test compounds at concentrations ranging from 300 to 0.01 ppm in acetone/water through the automated VPS. After drying, cotton leaves are removed and circular leaf discs (˜1 cm diameter) are punched from the treated surface and transferred to clean 20 mL scintillation vials. Ten Western flower thrips (FRANOC) are aspirated into each scintillation vial. The vials with the leaf discs and thrips are kept in an upright incubator at 25° C. and 50% relative humidity with a 14:10 light:dark photoperiod. Each treatment is replicated twice.
Thrips mortality is assessed at 2 DAT (days after treatment), counting all thrips both dead and alive. [The average absolute mortality is calculated for each treatment.]

[6] = test system: Diamond back moth (Plutella xylostella); experiment: Diamond back moth (Plutella xylostella) cabbage leaf dip test; conditions: foliar, 3rd instar larvae, 72 hours after treatment, read-out: mortality in comparison with untreated controls
Protocol: B.2. Diamond Back Moth (Plutella xylostella)
The active compound is dissolved at the desired concentration in a mixture of 1:1 (vol:vol) distilled water:acetone. Surfactant (Alkamuls® EL 620) is added at a rate of 0.1% (vol/vol). The test solution is prepared at the day of use.
Leaves of cabbage were dipped in test solution and air-dried. Treated leaves were placed in petri dish enlined with moist filter paper and inoculated with ten 3rd instar larvae. Mortality was recorded 72 hours after treatment. Feeding damages were also recorded using a scale of 0-100%.

[7] = test system: Silverleaf Whitefly (Bemisia argentifolih) (Adults); experiment: Silverleaf whitefly adults on sprayed cotton plants; conditions: 300 ppm, 3 days after treatment
Source text: B.3 Silverleaf Whitefly (Bemisia argentifolih) (Adults)
as §1, with “non-ionic” for “nonionic”
Cotton plants at the cotyledon stage (one plant per pot) were sprayed by an automated electrostatic plant sprayer equipped with an atomizing spray nozzle. The plants were dried in the sprayer fume hood and then removed from the sprayer. Each pot was placed into a plastic cup and about 10 to 12 whitefly adults (approximately 3-5 days old) were introduced. The insects were collected using an aspirator and a nontoxic Tygon® tubing connected to a barrier pipette tip. The tip, containing the collected insects, was then gently inserted into the soil containing the treated plant, allowing insects to crawl out of the tip to reach the foliage for feeding. Cups were covered with a reusable screened lid. […] Mortality was assessed 3 days after treatment, compared to untreated control plants.

## Cc1ccc(C(C)C)c(N2C(=O)CS/C2=N\N=C\c2ccc(-c3nccc(NC(=O)c4ccc(C(F)(F)F)cc4)n3)cc2)c1 [Example C-5, N-[2-[4-[(E)-[(Z)-[3-(2-isopropyl-5-methyl-phenyl)-4-oxo-thiazolidin-2-ylidene]hydrazono]methyl]phenyl]pyrimidin-4-yl]-4-(trifluoromethyl)benzamide]
[1]
  mortality at 2500 ppm: > 75%
[2]
  mortality at 2500 ppm: > 75%

## CC(C)c1ccccc1/N=C1\SCC(=O)N1/N=C/c1ccc(-c2cc(NC(=O)c3ccc(OC(F)(F)F)cc3)ncn2)cc1 [Example C-12, N-[6-[4-[(E)-[(2Z)-2-(2-isopropylphenyl)imino-4-oxo-thiazolidin-3-yl]iminomethyl]phenyl]pyrimidin-4-yl]-4-(trifluoromethoxy)benzamide]
[3]
  mortality at 500 ppm: > 75%
[4]
  mortality at 500 ppm: > 75%
[2]
  mortality at 2500 ppm: > 75%
[5]
  mortality at 300 ppm: > 75%
[6]
  mortality at 500 ppm: > 75%

## CO[C@@H]1[C@@H](OC)[C@H](C)O[C@@H](O/N=C/c2ccc(-c3cc(NC(=O)c4ccc(OC(F)(F)F)cc4)ncn3)cc2)[C@@H]1OC [Example C-13, 4-(trifluoromethoxy)-N-[6-[4-[(E)-[(2S,3R,4R,5S,6S)-3,4,5-trimethoxy-6-methyl-tetrahydropyran-2-yl]oxyiminomethyl]phenyl]pyrimidin-4-yl]benzamide]
[2]
  mortality at 2500 ppm: > 75%

## CC(C)c1ccccc1NC(=S)NN=Cc1ccc(-c2cc(C(=N)Nc3ccc(OC(F)(F)F)cc3)ncn2)cc1 [Example C-25]
[7]
  mortality in comparison with untreated controls: over 75%
